Measured values taken from PubChem BioAssay (NCI).
“And” between values parts separate entries of the source, which are not always exact repeats. Equal values may be shown once.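 Each compound was tested at five concentrations against cells in 96-well plates for 48 hours. GI50 marks 50% less growth. Definition used: TGI = concentration required for complete inhibition of growth.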

How the values were obtained:
Assay in all cases: DTP human tumour cell line panel, 48 h
[1] = test system: 786-0 renal
[2] = test system: ACHN renal
[3] = test system: CAKI-1 renal
[4] = test system: COLO 205 colon
[5] = test system: HCT-116 colon
[6] = test system: MALME-3M melanoma
[7] = test system: NCI-H522 lung
[8] = test system: SK-OV-3 ovarian
[9] = test system: TK-10 renal
[10] = test system: U251 CNS

Compound | TGI [1] | TGI [2] | TGI [3] [µM] | TGI [4] [µM] | TGI [5] | TGI [6] | TGI [7] | TGI [8] | TGI [9] | TGI [10] | GI50 [1] | GI50 [2] | GI50 [3] [µM] | GI50 [4] [µM] | GI50 [5] | GI50 [6] | GI50 [7] | GI50 [8] | GI50 [9] | GI50 [10]
CCCCNC(=S)Nn1c(-c2ccccc2)nc2ccccc2c1=O | > 100 µM | > 100 µM | > 100 | > 100 | > 100 µM | > 100 µM | > 100 µM | > 100 µM | > 100 µM | > 100 µM |  |  |  |  |  |  |  |  |  | 
C[N+](C)(C)CC(=O)N/N=C(/C=C/c1ccccc1)CC1OC(=O)c2ccccc21 (stereo unspecified) | > 100 µM | > 100 µM | > 100 | > 100 | > 100 µM | > 100 µM | > 100 µM | > 100 µM | > 100 µM | > 100 µM |  |  |  |  |  |  |  |  |  | 
CC/C=C/[C@@H]1C=C[C@@H]2CCC[C@H]2[C@@H]1CC[C@H](O)[C@H](C)N | 3.09 µM | 2.94 µM | 20.5 | 2.64 | 2.86 µM | 2.95 µM | 3.99 µM | 4.15 µM | 2.68 µM | 2.86 µM | 1.72 µM | 1.59 µM | 3.73 | 1.36 | 1.53 µM | 1.35 µM | 1.82 µM | 1.69 µM | 1.36 µM | 1.53 µM
COC1CC(OC2OC(CO)C(O)C(O)C2O)/C(=C\C#N)C(O)C1OC (stereo unspecified) | > 100 µM | > 100 µM | > 100 | > 100 | > 100 µM | > 100 µM | > 100 µM | > 100 µM | > 100 µM | > 100 µM |  |  |  |  |  |  |  |  |  | 
C=C1C(=O)OC(CCCCCCCC)C1C(=O)O (stereo unspecified) | 36.7 µM | 31 µM | 34.9 | 33.7 | 26.2 µM | 27.3 µM | 20.1 µM | > 77.9 µM | 33.6 µM | 29.4 µM | 18.2 µM | 17.2 µM | 16 | 18.2 | 11.9 µM | 11.9 µM | 7.57 µM | 34.3 µM | 18.9 µM | 15.6 µM
CC1CN(CCO)CC(C)O1 (stereo unspecified) | > 100 µM | > 100 µM | > 100 | > 100 | > 100 µM | > 100 µM | > 100 µM | > 100 µM | > 100 µM | > 100 µM |  |  |  |  |  |  |  |  |  | 
CC(C)NC(=O)OCc1nnn2c1C(OC(=O)NC(C)C)CC2 (stereo unspecified) | > 100 µM |  | > 100 | > 100 | > 100 µM | > 100 µM | > 100 µM | > 100 µM | > 100 µM | > 100 µM |  |  |  |  |  |  |  |  |  | 
O=C(Cn1ccnc1[N+](=O)[O-])NCCO | > 100 µM | > 100 µM | > 100 | > 100 | > 100 µM | > 100 µM | > 100 µM | > 100 µM | > 100 µM | > 100 µM |  |  |  |  |  |  |  |  |  | 
Cc1ccc(CCC(=O)Nc2ncc(Cc3cc(Cl)ccc3Cl)s2)o1 | 4.19 µM | 4.85 µM | 7.36 | 0.658 | 2.14 µM | > 100 µM | 12.9 µM | > 100 µM | > 66.5 µM | 3.39 µM | 0.692 µM | 0.665 µM | 0.114 | 0.194 | 0.0696 µM | 0.945 µM | 0.229 µM | 0.399 µM | 2.81 µM | 0.202 µM
COc1ccc(CN2CCc3c(Cl)nc(N)nc3C2=O)c(OC)c1 | 48.1 µM | 48.5 µM | > 100 | 30.6 | 29.9 µM | 44.2 µM | 30.9 µM | 88 µM | 99.3 µM | 27.9 µM | 23.9 µM | 20.4 µM | 43.6 | 16.3 | 16.1 µM | 15.8 µM | 12.7 µM | 24.2 µM | 33.1 µM | 14.6 µM
O=C(Nc1ccc(Cl)cc1)NS(=O)(=O)c1ccc2c(c1)CCC2 | > 100 µM and 40.5 µg/mL | > 100 µM and 49.6 µg/mL | > 100 | > 60.8 | > 67.3 µM and 27.9 µg/mL | > 71.3 µM and 38.2 µg/mL | 94.1 µM and 12.5 µg/mL | 86.1 µM and 41.9 µg/mL | > 95.4 µM and 44.5 µg/mL | > 77.5 µM and 48.3 µg/mL | 21.1 µg/mL | 16.1 µg/mL |  |  | 8.93 µg/mL | 13.7 µg/mL | 4.86 µg/mL | 18 µg/mL | 21 µg/mL | 22.5 µg/mL
CC(C)c1ccc2c(c1)CCC1C(C)(C)[C@@H](O)CC[C@]21C (stereo partly specified) | 52.5 µM | > 100 µM | > 100 | 32.9 | 34.1 µM | 30.8 µM | 79 µM | > 100 µM | > 100 µM | 52.2 µM |  |  |  |  |  |  |  |  |  | 
COc1cc([C@@H]2c3cc4c(cc3[C@H](OC3OC5COC(c6ccccc6)OC5C(O)C3O)[C@H]3COC(=O)[C@H]23)OCO4)cc(OC)c1OC (stereo partly specified) | 19.6 µM | 12.7 µM | 22.2 | 0.935 |  | 4.89 µM | 3.3 µM | 18.5 µM | 5.51 µM | 2.02 µM | 0.594 µM | 0.596 µM | 0.378 | 0.28 | 0.346 µM | 1.17 µM | 0.322 µM | 0.441 µM | 1.13 µM | 0.34 µM
O=C(c1ccccc1)c1nnn(Cc2cccc(Cl)c2)c1C(=O)c1ccccc1 | > 100 µM | > 100 µM | > 100 | 38.8 | > 100 µM | > 100 µM | > 100 µM | > 100 µM | > 100 µM | > 100 µM |  |  |  |  |  |  |  |  |  | 
O=C(CCCCCCc1nc2ccc(Br)cc2[nH]1)NO | 10.7 µM | 3.41 µM | 1.54 | 5.07 | 1.03 µM | 0.813 µM | 0.859 µM | 3.52 µM | 5.7 µM | 4.62 µM | 1.03 µM | 0.671 µM | 0.461 | 0.975 | 0.202 µM | 0.203 µM | 0.134 µM | 0.628 µM | 0.596 µM | 0.387 µM
O=C1CCCC1C(=O)Nc1ccc2ccccc2c1 (stereo unspecified) | > 100 µM | > 100 µM | > 100 | > 100 | > 100 µM | > 100 µM | > 100 µM | > 100 µM | > 100 µM | > 100 µM |  |  |  |  |  |  |  |  |  | 
